Laboratory results as given in PubChem BioAssay AID1351 (Sanford-Burnham Center for Chemical Genomics, 2008).
Values joined by “and” are separate entries in the source; they are usually repeats but may differ in a detail not shown here. Equal entries are not always repeated.

System: PPC-1 thapsigargin-induced death, ATPlite luminescence, 24 h
Test: ER stress death rescue in PPC-1 prostate cells – cell-based, human prostate cancer PPC-1, ATP luminescence, SAR follow-up (AID 1351)
Conditions: at 25 µM, stronger effect = higher value
[1] = measured here: survival at thapsigargin 15 uM
[2] = measured here: survival at thapsigargin 20 uM
[3] = survival at lower thapsigargin concentration

Row | Structure (SMILES) | survival | survival [1] | survival [2] | survival [3]
1 | CCOc1cccc(C2Nc3ccccc3NC3=C2C(=O)CC(c2ccc(OC)cc2)C3)c1 (centres undefined) | 39% | 14% | 15% | 81% and 87%
2 | COc1ccc(C2CC(=O)C3=C(C2)Nc2ccccc2NC3c2cc(C)ccc2C)cc1 (centres undefined) | 88% | 83% | 32% | 85% and 91%
3 | CCOc1cc(C2Nc3ccccc3NC3=C2C(=O)CC(c2ccc(OC)cc2)C3)cc(Cl)c1O (centres undefined) | 62% | 11% | 8.5% | 82% and 90%
4 | COc1ccc(C2CC(=O)C3=C(C2)Nc2ccccc2NC3c2cccc(Oc3ccccc3)c2)cc1OC (centres undefined) | 89% | 95% | 69% | 91% and 92%
5 | COc1ccc(C2CC(=O)C3=C(C2)Nc2ccccc2NC3c2ccccc2C(F)(F)F)cc1OC (centres undefined) | 105% | 108% | 56% | 97% and 102%
6 | CSc1ccc(C2Nc3ccccc3NC3=C2C(=O)CC(c2ccccc2)C3)cc1 (centres undefined) | 89% | 52% | 26% | 95% and 105%
7 | CC1(C)CC(=O)C2=C(C1)Nc1ccccc1NC2c1ccc(-c2ccccc2)cc1 (centres undefined) | 90% | 86% | 87% | 81% and 101%
8 | COc1ccc(C2CC(=O)C3=C(C2)Nc2ccccc2NC3c2cccc(C(F)(F)F)c2)cc1OC (centres undefined) | 94% | 99% | 69% | 93% and 94%
9 | O=C1CC(c2ccccc2)CC2=C1C(c1c(F)cccc1Cl)Nc1ccccc1N2 (centres undefined) | 90% | 35% | 18% | 86% and 92%
10 | COc1ccc(C2CC(=O)C3=C(C2)Nc2ccccc2NC3c2cccc(Br)c2)cc1OC (centres undefined) | 85% | 102% | 59% | 94% and 100%
11 | CCCOc1ccc(C2Nc3ccccc3NC3=C2C(=O)CC(c2ccc(OC)c(OC)c2)C3)cc1 (centres undefined) | 90% | 75% | 37% | 82% and 81%
